Results as given in patent US7799791B2, “Tetrahydrofuro(3,2-B) pyrrol-3-one derivatives as inhibitors of cysteine proteinases” (Amura Therapeutics Limited, priority 2007, dated 2010).
Like-named read-outs stand apart in the source and are kept apart here.

Tests used:
[1] = biological target: T1, Human recombinant cathepsin K (Homo sapiens, UniProt P43235); test: In vitro cathepsin Ki inhibition measurements; type: biochemical
T1 construct: purchased B. Turk, Josef, Stefan Institute, Ljubljana, Slovenia
T1 sequence (P43235 115-329): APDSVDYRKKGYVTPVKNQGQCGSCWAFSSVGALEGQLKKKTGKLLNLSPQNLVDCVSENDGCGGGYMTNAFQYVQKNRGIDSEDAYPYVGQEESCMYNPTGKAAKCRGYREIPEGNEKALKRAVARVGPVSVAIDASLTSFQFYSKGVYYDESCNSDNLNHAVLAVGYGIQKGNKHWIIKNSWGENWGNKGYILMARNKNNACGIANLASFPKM
Procedure: Stock solutions of substrate or inhibitor were made up to 10 mM in 100% dimethylsulfoxide (DMSO) (Rathburns, Glasgow, U.K.) and diluted as appropriately required. In all cases the DMSO concentration in the assays was maintained at less than 1% (vol./vol.). The equilibrium inhibition constants (Ki^ss) for each compound were measured under steady-state conditions monitoring enzyme activity as a function of inhibitor concentration. The values were calculated on the assumption of pure competitive behaviour (Cornish-Bowden, A. Fundamentals of enzyme kinetics Portland Press; 1995, 93-128.). Human recombinant cathepsin K (0.25 nM final; B. Turk, Josef, Stefan Institute, Ljubljana, Slovenia), was routinely assayed in 100 mM sodium acetate; pH 5.5 containing 1 mM EDTA, 10 mM L-cysteine and 1.8 μM Z-Leu-Arg-AMC ([S]=KM).
The apparent inhibition constant (Ki) for each compound was determined on the basis that inhibition was reversible and occurred by a pure-competitive mechanism. The Ki values were calculated, from the dependence of enzyme activity as a function of inhibitor concentration, by direct regression analysis (Prism v 3.02) using Equation 2 (Comish-Bowden, A., 1995.).
In situations where the apparent dissociation constant (Ki^app) approached the enzyme concentrations, the Ki^app values were calculated using a quadratic solution in the form described by Equation 3 (Morrison, J. F. Trends Biochem. Sci., 7, 102-105, 1982; Morrison, J. F. Biochim. Biophys. Acta. 185, 269-286, 1969; Stone, S. R. and Hofsteenge, J. Biochemistry, 25, 4622-4628, 1986).
Curves were fitted by non-linear regression analysis (Prism) using a fixed value for the enzyme concentration. Equation 4 was used to account for the substrate kinetics, where ‘Ki’ is the inhibition constant, ‘[So]’ is the initial substrate concentration and ‘KM^app’ is the apparent macroscopic binding (Michaelis) constant for the substrate (Morrison, 1982).

[2] = Plasma incubations (human plasma stability); type: in vitro ADME; conditions: 37° C., 25 μM, percent remaining at 1 hour
Procedure: Human and rat plasma were purchased from Innovative Research Inc. (Southfield. Mich., USA). […] Aliquots were removed at 2 and 60 minutes and quenched with an equal volume of cold acetonitrile. After mixing vigorously, the precipitated protein matter was removed by filtration (Multiscreen Solvinert filter plates, Millipore, Bedford, Mass., USA) and the filtrate analysed by reverse phase HPLC with mass spectrometric detection, using single ion monitoring of the [M+H]^+ species. Metabolic turnover was determined by comparison of peak areas from the ion chromatograms of the parent compound at 2 and 60 minutes and expressed as percent remaining at 1 hour.

[3] = Table 1, read-out: In vitro Ki (nM) vs Cath K
[4] = prior art WO-A-02057270 examples, Table 2, read-out: Ki (nM) vs Human Cathepsin K

| Compound | Ki [1, 3] [nM] | Human Plasma Stability % rem. @ 1 h [2] [%] | Ki [1, 4] [nM] |
| --- | --- | --- | --- |
| CO[C@H]1CN(C(=O)[C@@H](NC(=O)c2ccc(-c3csc(N4CCN(C)CC4)n3)cc2)C2CCCC2)[C@@H]2C(=O)CO[C@H]12 [Example 1, N-((S)-1-cyclopentyl-2-((3aS,6S,6aS)-6-methoxy-3-oxodihydro-2H-furo[3,2-b]pyrrol-4(5H,6H,6aH)-yl)-2-oxoethyl)-4-(2-(4-methylpiperazin-1-yl)thiazol-4-yl)benzamide] | 1.4 | 100 |  |
| CO[C@@H]1CN(C(=O)[C@@H](NC(=O)c2ccc(-c3csc(N4CCN(C)CC4)n3)cc2)C2CCCC2)[C@@H]2C(=O)CO[C@@H]21 [Example 2, N-((S)-1-cyclopentyl-2-((3aS,6R,6aS)-6-methoxy-3-oxodihydro-2H-furo[3,2-b]pyrrol-4(5H,6H,6aH)-yl)-2-oxoethyl)-4-(2-(4-methylpiperazin-1-yl)thiazol-4-yl)benzamide] | 1.9 | 98.2 |  |
| CC(C)C[C@H](NC(=O)c1ccc(-c2csc(N3CCN(C)CC3)n2)cc1)C(=O)N1CC[C@H]2OCC(=O)[C@H]21 [Example 3, N-((S)-4-methyl-1-oxo-1-((3aS,6aR)-3-oxodihydro-2H-furo[3,2-b]pyrrol-4(5H,6H,6aH)-yl)pentan-2-yl)-4-(2-(4-methylpiperazin-1-yl)thiazol-4-yl)benzamide] | 1.7 | 92.6 |  |
| CN1CCN(c2nc(-c3ccc(C(=O)N[C@@H](CC(C)(C)C)C(=O)N4CC[C@H]5OCC(=O)[C@H]54)cc3)cs2)CC1 [Example 4, N-((S)-4,4-dimethyl-1-oxo-1-((3aS,6aR)-3-oxodihydro-2H-furo[3,2-b]pyrrol-4(5H,6H,6aH)-yl)pentan-2-yl)-4-(2-(4-methylpiperazin-1-yl)thiazol-4-yl)benzamide] | 1.7 | 91.9 |  |
| CN1CCN(c2nc(-c3ccc(C(=O)N[C@H](C(=O)N4CC[C@H]5OCC(=O)[C@H]54)C4CCCC4)cc3)cs2)CC1 [Example 5, N-((S)-1-cyclopentyl-2-oxo-2-((3aS,6aR)-3-oxodihydro-2H-furo[3,2-b]pyrrol-4(5H,6H,6aH)-yl)-2-oxoethyl)-4-(2-(4-methylpiperazin-1-yl)thiazol-4-yl)benzamide] | 1.3 | 82.5 |  |
| CC(C)C[C@H](NC(=O)c1ccc(C(C)(C)C)cc1)C(=O)N1CC[C@H]2OCC(=O)[C@H]21 [Prior art compound 23, reference compound] | 87.4 | 75 |  |
| N-((S)-1-cyclopentyl-2-((3aS,6R,6aS)-6-methoxy-3-oxodihydro-2H-furo[3,2-b]pyrrol-4(5H,6H,6aH)-yl)-2-oxoethyl)-4-(2-(4-methylpiperazin-1-yl)thiazol-4-yl)benzamide [Example 2] |  |  | > 50000 |
| N-((S)-4-methyl-1-oxo-1-((3aS,6aR)-3-oxodihydro-2H-furo[3,2-b]pyrrol-4(5H,6H,6aH)-yl)pentan-2-yl)-4-(2-(4-methylpiperazin-1-yl)thiazol-4-yl)benzamide [Example 3] |  |  | > 4000 |
